Consider 17 compounds from US12365674B2, “Inhibitors of histone deacetylase useful for the treatment or prevention of HIV infection” (Merck Sharp & Dohme LLC, priority 2019, dated 2025).

Read-outs that look alike come from different tables or passages of the source.

In this test the test system is KARN cells (Jurkat 2C4). Description: KARN assay (luciferase induction in latently HIV-infected Jurkat 2C4 cells). It counts as cell-based. Conditions: ~20 hr, luciferase induction relative to 2 μM SAHA (100%). The procedure: KARN cells (Jurkat 2C4) were licensed from the laboratory of Dr. John Karn, Case Western Reserve University, School of Medicine. The details regarding this cell line are published (Pearson, R., Kin, Y. K., Hokello, J., Lassen, K., Friedman, J., Tyagi, M., Karn, J., 2008, J. Virol. 82:12291-12303). The cells were grown in a T175 flask (Thermo Fisher, catalog number 159910) in RPMI 1640 containing L-glutamine and phenol red (Life Technologies, catalog number 11875-085), 5% heat inactivated fetal bovine serum (FBS; Life Technologies, catalog number 10100-147) and 100 μg/ml Penicillin-Streptomycin (Life Technologies, catalog number 15140-122) at 37° C. An atmosphere of 5% CO2 and 90% humidity was used for all culture work. Cells were split and reseeded into T175 flasks at a density of 0.2×10^6 cells/ml, in 40 ml of media, every 3-4 days.
Day 1: After the 3-4 day growth period, the cells were transferred from the T175 flask to a 50 ml conical tube and gently pelleted at 1000 rpm for 5 minutes. The supernatant was removed and the cells gently resuspended in assay media RPMI 1640 medium containing L-glutamine but without Phenol Red (Life Technologies, catalog number 11835-030), 5% FBS and 100 μg/ml Penicillin-Streptomycin, and then reseeded such that the original flask is now divided into two T175 flasks. These flasks were returned to the incubator.
Day 2: Cell Preparation: The next day, the cells were transferred from each T175 flask to an individual 50 ml conical tube and gently pelleted at 1000 rpm for 5 minutes. The cells were gently resuspended in assay media (30 ml) and pelleted again. The cell pellets were each resuspended in 30 ml of RPMI 1640 medium containing L-glutamine but without Phenol Red, 100 μg/ml Penicillin-Streptomycin and containing either 0.1% or 5% normal human serum (NHS; Biospecialty, Colmar, PA, catalog number 115-00 Anticoagulant free). The cells were counted using the ViCell (Beckman Coulter, Brea, CA) and diluted as necessary. A Multidrop (Combi, Thermo Scientific, Waltham, MA) with a sterile head was used to seed the cells into the wells of a 384-well solid black plate with lid (Perkin Elmer, Waltham, MA, catalog number 6007660) at 4000 cells/30 μl/well for the 5% NHS assay media and 6000 cells/30 μl/well for 0.1% NHS assay. The plates were covered and returned to the incubator prior to compound addition.
Compound Preparation: Solutions of control inhibitor suberoylanilide hydroxamic acid (SAHA; Sigma, catalog number SML0061) and test compounds in 100% DMSO were titrated into 384-well polypropylene plates (Labcyte, San Jose, CA, catalog number P-05525) using a 20-point dose response and 2-fold dilutions. The reference compounds, DMSO and SAHA were then added to the compound plate. Using the Access system (Labcyte), 120 nl of these inhibitor and control solutions were added to the individual wells of the plates containing the cells, and the plates were then returned to the incubator for ˜20 hr (range from 18-24 hr). The final high concentration for SAHA and the test compounds in the assays was 40 μM. The final DMSO concentration in all wells was 0.4%. The minimal induction reference compound used was DMSO and the maximal induction reference compound used was SAHA (2 μM final concentration in the assay).
Day 3: The luciferase detection reagent was prepared by transferring the contents of one bottle of Steady-Glo buffer to one bottle of Steady-Glo substrate (Steady-Glo Luciferase Assay System, Promega, Madison, […], catalog number E2520), followed by gently mixing until the substrate was thoroughly dissolved and the solution was equilibrated to room temperature. The cell culture assay plates were removed from the incubator and brought to room temperature (15 min). The Steady-Glo Reagent was added to the plates (30 μl/well), which were then covered with a black lid and incubated for 10 minutes at room temperature. […]

Where [1] appears, read: 0.1% normal human serum, 6000 cells/well, read-out: Karn 0.1% NHS.
Where [2] appears, read: 5% normal human serum, 4000 cells/well, read-out: Karn 5% NHS.

As for `COc1nc2ccccc2cc1-c1cnc([C@@H](N)COCCCC(=O)c2ncco2)[nH]1` [Compound 1, (R)-4-(2-amino-2-(5-(2-methoxyquinolin-3-yl)-1H-imidazol-2-yl)ethoxy)-1-(oxazol-2-yl)butan-1-one], the EC50 under setting [1] is 11700 nM.
For `CCC(=O)CCCOC[C@H](NC(=O)C12CCN(CC1)CC2)c1ncc(-c2cc3ccccc3nc2OC)[nH]1` [Compound 6, N-{(1R)-1-[5-(2-methoxyquinolin-3-yl)-1H-imidazol-2-yl]-2-[(4-oxohexyl)oxy]ethyl}-1-azabicyclo[2.2.2]octane-4-carboxamide], the EC50 under setting [1] was determined as 8970 nM and the EC50 under setting [2] was determined as 14500 nM.
As to `CCC(=O)CCCOC[C@H](NC(=O)[C@H]1CC12CCN(CC)CC2)c1ncc(-c2cc3ccccc3nc2OC)[nH]1` [Compound 7, (1S)-6-ethyl-N-{(1R)-1-[5-(2-methoxyquinolin-3-yl)-1H-imidazol-2-yl]-2-[(4-oxohexyl)oxy]ethyl}-6-azaspiro[2.5]octane-1-carboxamide], the EC50 by setting is: under setting [1], 2350 nM; under setting [2], 3500 nM.
For the compound `CNC(=O)C(=O)CCCOC[C@H](NC(=O)c1cncs1)c1ncc(-c2cc3ccccc3nc2OC)[nH]1` [Compound 8, N-[(1R)-1-[5-(2-methoxyquinolin-3-yl)-1H-imidazol-2-yl]-2-{[5-(methylamino)-4,5-dioxopentyl]oxy}ethyl]-1,3-thiazole-5-carboxamide], the EC50 reads like this: under setting [1], 80.2 nM; under setting [2], 408 nM.
The corresponding values for `CNC(=O)C(=O)CCCOC[C@H](NC(=O)C12CCN(CC1)CC2)c1ncc(-c2cc3ccccc3nc2OC)[nH]1` [Compound 9, N-[(1R)-1-[5-(2-methoxyquinolin-3-yl)-1H-imidazol-2-yl]-2-{[5-(methylamino)-4,5-dioxopentyl]oxy}ethyl]-1-azabicyclo[2.2.2]octane-4-carboxamide] are 232 nM and 466 nM.
The matching figures for `COc1nc2ccccc2cc1-c1cnc([C@H](COCCCC(=O)c2ncco2)NC(=O)c2cncs2)[nH]1` [Compound 10, N-{(1R)-1-[5-(2-methoxyquinolin-3-yl)-1H-imidazol-2-yl]-2-[4-(1,3-oxazol-2-yl)-4-oxobutoxy]ethyl}-1,3-thiazole-5-carboxamide]: 295 nM and 1500 nM.
The corresponding values for `COc1nc2ccccc2cc1-c1cnc([C@H](COCCCC(=O)c2ncco2)NC(=O)[C@H]2CC23CCN(C)CC3)[nH]1` [Compound 11, (1S)-N-{(1R)-1-[5-(2-methoxyquinolin-3-yl)-1H-imidazol-2-yl]-2-[4-(1,3-oxazol-2-yl)-4-oxobutoxy]ethyl}-6-methyl-6-azaspiro[2.5]octane-1-carboxamide] are 59.8 nM and 218 nM.
In the case of `COc1nc2ccccc2cc1-c1cnc([C@H](COCCCC(=O)c2ncco2)NC(=O)C23CCN(CC2)CC3)[nH]1` [Compound 12, N-{(1R)-1-[5-(2-methoxyquinolin-3-yl)-1H-imidazol-2-yl]-2-[4-(1,3-oxazol-2-yl)-4-oxobutoxy]ethyl}-1-azabicyclo[2.2.2]octane-4-carboxamide], the EC50 was 252 nM under setting [1] and 562 nM under setting [2].
The corresponding values for `COc1nc2ccccc2cc1-c1cnc([C@H](COCCCC(=O)c2ncco2)NC(=O)CN(C)C)[nH]1` [Compound 13, N-{(1R)-1-[5-(2-methoxyquinolin-3-yl)-1H-imidazol-2-yl]-2-[4-(1,3-oxazol-2-yl)-4-oxobutoxy]ethyl}-N~2~,N~2~- dimethylglycinamide] are 424 nM and 854 nM.
Regarding `COc1nc2ccccc2cc1-c1cnc([C@H](COCCCC(=O)c2ccon2)NC(=O)CN(C)C)[nH]1` [Compound 14, N-{(1R)-2-(4-isoxazol-3-yl-4-oxobutoxy)-1-[5-(2-methoxyquinolin-3-yl)-1H-imidazol-2-yl]ethyl}-N~2~,N~2~- dimethylglycinamide], the EC50 was determined as 83.8 nM under setting [1] and 252 nM under setting [2].
As for `CN1CC(C(=O)N[C@@H](COCCCC(=O)c2ccon2)c2ncc(-c3ccccc3F)[nH]2)C1` [Compound 15, N-[(1R)-1-[5-(2-fluorophenyl)-1H-imidazol-2-yl]-2-(4-isoxazol-3-yl-4-oxobutoxy)ethyl]-1-methylazetidine-3-carboxamide], the EC50 by setting is: under setting [1], 539 nM; under setting [2], 548 nM.
The matching figures for `CN1CC(C(=O)N[C@@H](COCCCC(=O)c2ccon2)c2[nH]c(-c3ccc(F)cc3)nc2Cl)C1` [Compound 16, N-[(1R)-1-[4-chloro-2-(4-fluorophenyl)-1H-imidazol-5-yl]-2-(4-isoxazol-3-yl-4-oxobutoxy)ethyl]-1-methylazetidine-3-carboxamide]: 979 nM and 1100 nM.
The matching figures for `CN(C)CC(=O)N[C@@H](COCCCC(=O)c1ccon1)c1[nH]c(-c2ccc(F)cc2)nc1Cl` [Compound 17, N-[(1R)-1-[4-chloro-2-(4-fluorophenyl)-1H-imidazol-5-yl]-2-(4-isoxazol-3-yl-4-oxobutoxy)ethyl]-N~2~,N~2~- dimethylglycinamide]: 1490 nM and 2420 nM.
The matching figures for `CN1CCC2(CC1)C[C@@H]2C(=O)N[C@@H](COCCCC(=O)c1ccon1)c1[nH]c(-c2ccc(F)cc2)nc1Cl` [Compound 18, (1S)-N-[(1R)-1-[4-chloro-2-(4-fluorophenyl)-1H-imidazol-5-yl]-2-(4-isoxazol-3-yl-4-oxobutoxy)ethyl]-6-methyl-6-azaspiro[2.5]octane-1-carboxamide]: 77.7 nM and 109 nM.
In the case of `COc1cc2nc(C)ccc2cc1-c1cnc([C@H](COCCCC(=O)c2cc(C)on2)NC(=O)C2CN(C)C2)[nH]1` [Compound 19, N-{(1R)-1-[5-(7-methoxy-2-methylquinolin-6-yl)-1H-imidazol-2-yl]-2-[4-(5-methylisoxazol-3-yl)-4-oxobutoxy]ethyl}-1-methylazetidine-3-carboxamide], the EC50 by setting is: under setting [1], 374 nM; under setting [2], 449 nM.
The matching figures for `COc1cc2nc(C)ccc2cc1-c1cnc([C@H](COCCCC(=O)c2cc(C)on2)NC(=O)[C@H]2CC23CCN(C)CC3)[nH]1` [Compound 20, (1S)-N-{(1R)-1-[5-(7-methoxy-2-methylquinolin-6-yl)-1H-imidazol-2-yl]-2-[4-(5-methylisoxazol-3-yl)-4-oxobutoxy]ethyl}-6-methyl-6-azaspiro[2.5]octane-1-carboxamide]: 40.5 nM and 55.1 nM.
The corresponding values for `Cc1ccc2cc(-c3cnc([C@H](CSCCCC(=O)c4ncco4)NC(=O)[C@H]4CC45CCN(C)CC5)[nH]3)ccc2n1` [Compound 21, (1S)-6-methyl-N-[(1R)-1-[5-(2-methylquinolin-6-yl)-1H-imidazol-2-yl]-2-{[4-(1,3-oxazol-2-yl)-4-oxobutyl]sulfanyl}ethyl]-6-azaspiro[2.5]octane-1-carboxamide] are 60.7 nM and 64.4 nM.
